In patent publication US8916702B2 (priority 2012, dated 2014) one finds EC50 data, which are given here for 43 molecules.

This assay has as its system HCV pseudoparticles (genotype 1a HCV E1 and E2 envelope, H77C isolate). Put plainly: microbe, parasite or virus in culture. Format: cell-based. As to conditions: Hepatitis C virus.
Where [1] appears, read: Huh-7, read-out: Activity (EC50 class), HCV pseudoparticles (genotype 1a, H77C) in Huh7 cells, EC50 expressed as class A/B.
Where [2] appears, read: Huh-7, 48 h, read-out: Activity (EC50 class), HCV pseudoparticle infection of Huh7 cells, luciferase 2 days after infection, EC50 expressed as class A/B.
[3] abbreviates: Huh-7, 48 h, read-out: Activity (EC50 class), HCV pseudoparticles, Huh7 cells, luciferase 2 days after infection, average of duplicates.
[4] abbreviates: Huh-7, 48 h, HCV pseudoparticles (genotype 1a, H77C) in Huh7 cells, average of duplicate, luciferase 2 days after infection.
[5] abbreviates: Huh-7, 48 h, HCV pseudoparticle infection of Huh7 cells, luciferase 2 days after infection, average of duplicates.

Read-outs that look alike come from different tables or passages of the source.

One may read the EC50 as the concentration giving half of the maximal effect. With `COC(=O)[C@H](CCNC(=O)C(=O)Nc1ccc(Cn2cncn2)cc1)NC(=O)c1ccc(Nc2nc(NC3(c4ccc(Cl)cc4)CC3)nc(OCC(F)(F)F)n2)cc1` [Compound 3299], the EC50 under setting [1] was in the range of 0.01 to 10 nM.

With `COC(=O)[C@H](CCNC(=O)C(=O)Nc1ccnn1C)NC(=O)c1ccc(Nc2nc(NC3(c4ccc(Cl)cc4)CC3)nc(OCC(F)(F)F)n2)cc1` [Compound 1239], the EC50 under setting [2] was 0.01 to 10 nM.

For the molecule `COC(=O)[C@H](CNC(=O)C(=O)Nc1cccc(Cl)c1)NC(=O)c1ccc(Nc2nc(NC3(c4ccc(Cl)cc4)CC3)nc(OCC(F)(F)F)n2)cc1` [Compound 3685], the EC50 under setting [3] lay within 0.01 to 10 nM.

In the case of `Cc1ccc(NC(=O)C(=O)NCCCNC(=O)c2ccc(Nc3nc(NC4(c5ccc(Cl)cc5)CC4)nc(OCC(F)(F)F)n3)cc2)cc1` [Compound 3358], the half-maximal effective concentration (EC50) is, setting by setting: under setting [4], 0.034 nM; under setting [1], 0.01 to 10 nM.

Take `COc1ncccc1NC(=O)C(=O)NC[C@H](NC(=O)c1ccc(Nc2nc(NC3(c4ccc(Cl)cc4)CC3)nc(OCC(F)(F)F)n2)cc1)C(=O)O` [Compound 1347]: the EC50 under setting [2] lay in the range of 0.01 to 10 nM.

As to `CCC1CCC(NC(=O)C(=O)NC[C@H](NC(=O)c2ccc(Nc3nc(NC4(c5ccc(Cl)cc5)CC4)nc(OCC(F)(F)F)n3)cc2)C(=O)OC)CC1` (stereo partly drawn) [Compound 1065], the EC50 is 0.59 nM under setting [5] and 0.01 to 10 nM under setting [2].

As for `COC(=O)[C@H](CCNC(=O)C(=O)Nc1ccc(C(F)(F)F)cc1)NC(=O)c1ccc(Nc2nc(NC3(c4ccc(Cl)cc4)CC3)nc(OCC(F)(F)F)n2)cc1` [Compound 1233], the EC50 under setting [2] is 0.01 to 10 nM.

Take `CC(C)(CNC(=O)C(N)=O)CNC(=O)c1ccc(Nc2nc(NC3(c4ccc(Cl)cc4)CC3)nc(OCC(F)(F)F)n2)cc1` [Compound 1552, N^1-(3-(4-((4-((1-(4-chlorophenyl)cyclopropyl)amino)-6-(2,2,2-trifluoroethoxy)-1,3,5-triazin-2-yl)amino)benzamido)-2,2-dimethylpropyl)oxalamide]: the EC50 under setting [2] is 0.01 to 10 nM.

For `O=C(NCCCCNC(=O)c1ccc(Nc2nc(NC3(c4ccc(Cl)cc4)CC3)nc(OCC(F)(F)F)n2)cc1)C(=O)N1CCc2ccccc2C1` [Compound 3402], the half-maximal effective concentration (EC50) is, setting by setting: under setting [4], 0.2 nM; under setting [1], 0.01 to 10 nM.

For `O=C(NCC[C@H](NC(=O)c1ccc(Nc2nc(NC3(c4ccc(Cl)cc4)CC3)nc(OCC(F)(F)F)n2)cc1)C(=O)O)C(=O)Nc1ccc(Oc2cccnc2)cc1` [Compound 3545], the concentration for a half-maximal effect (EC50) under setting [1] was 0.01 to 10 nM.

Turning to `CNC(=O)CCc1cccc(NC(=O)C(=O)NCC(C)(C)CNC(=O)c2ccc(Nc3nc(NC4(c5ccc(Cl)cc5)CC4)nc(OCC(F)(F)F)n3)cc2)c1` [Compound 3037], the EC50 under setting [1] was 0.01 to 10 nM.

Consider `O=C(NCC[C@H](NC(=O)c1ccc(Nc2nc(NC3(c4ccc(Cl)cc4)CC3)nc(OCC(F)(F)F)n2)cc1)C(=O)O)C(=O)NCC1CC1c1cccc(F)c1` (stereo partly drawn) [Compound 1448], for which the EC50 under setting [2] lay within 0.01 to 10 nM.

Regarding `O=C(NC[C@H](NC(=O)c1ccc(Nc2nc(NC3(c4ccc(Cl)cc4)CC3)nc(OCC(F)(F)F)n2)cc1)C(=O)Cl)C(=O)Nc1cccc(C(=O)c2ccccc2)c1` [Compound 3748], the 50% effective concentration (EC50) under setting [3] fell in the range of 0.01 to 10 nM.

Take `Cc1cc(NC(=O)C(=O)N(CCO)CCCNC(=O)c2ccc(Nc3nc(NC4(c5ccc(Cl)cc5)CC4)nc(OCC(F)(F)F)n3)cc2)no1` [Compound 3500]: under setting [1], the EC50 is 0.01 to 10 nM.

Turning to `COc1ccc(NC(=O)C(=O)NCC[C@H](NC(=O)c2ccc(Nc3nc(NC4(c5ccc(Cl)cc5)CC4)nc(OCC(F)(F)F)n3)cc2)C(=O)O)cn1` [Compound 1262], the 50% effective concentration (EC50) under setting [2] is 0.01 to 10 nM.

With `CC(C)(CNC(=O)C(=O)Nc1ccc(F)cc1F)CNC(=O)c1ccc(Nc2nc(NC3(c4ccc(Cl)cc4)CC3)nc(OCC(F)(F)F)n2)cc1` [Compound 1539], under setting [2], the EC50 lay in the range of 0.01 to 10 nM.

In the case of `COc1cc2nc(NC(=O)C(=O)NCC(C)(C)CNC(=O)c3ccc(Nc4nc(NC5(c6ccc(Cl)cc6)CC5)nc(OCC(F)(F)F)n4)cc3F)sc2cc1OC` [Compound 3677], the EC50 under setting [3] fell in the range of 0.01 to 10 nM.

Regarding `COC(=O)[C@H](CCNC(=O)C(=O)Nc1cccc(-n2cnnc2)c1)NC(=O)c1ccc(Nc2nc(NC3(c4ccc(Cl)cc4)CC3)nc(OCC(F)(F)F)n2)cc1` [Compound 3605], the EC50 under setting [3] fell in the range of 0.01 to 10 nM.

On to `COC(=O)[C@H](CCNC(=O)C(=O)Nc1cccnc1)NC(=O)c1ccc(Nc2nc(NC3(c4ccc(Cl)cc4)CC3)nc(OCC(F)(F)F)n2)cc1` [Compound 1238], for which the concentration for a half-maximal effect (EC50) under setting [2] fell in the range of 0.01 to 10 nM.

For the molecule `O=C(NCCNC(=O)c1ccc(Nc2nc(NC3(c4ccc(Cl)cc4)CC3)nc(OCC(F)(F)F)n2)cc1)C(=O)Nc1cccc(F)c1` [Compound 3369], the EC50 under setting [1] is 0.01 to 10 nM.

Consider `O=C(NC[C@H](NC(=O)c1ccc(Nc2nc(NC3(c4ccc(Cl)cc4)CC3)nc(OCC(F)(F)F)n2)cc1)C(=O)O)C(=O)Nc1ccc(O)nc1` [Compound 3777], for which the EC50 under setting [3] is 0.01 to 10 nM.

Regarding `CN(CCCNC(=O)c1ccc(Nc2nc(NC3(c4ccc(Cl)cc4)CC3)nc(OCC(F)(F)F)n2)cc1)C(=O)C(=O)Nc1cccc(F)c1` [Compound 3443], under setting [1], the EC50 was in the range of 0.01 to 10 nM.

As to `CC(C)c1ccc(NC(=O)C(=O)NCC[C@H](NC(=O)c2ccc(Nc3nc(NC4(c5ccc(Cl)cc5)CC4)nc(OCC(F)(F)F)n3)cc2)C(=O)O)cc1` [Compound 3550], the EC50 under setting [1] fell in the range of 0.01 to 10 nM.

In the case of `COc1ccc(CNC(=O)C(=O)NC[C@H](NC(=O)c2ccc(Nc3nc(NC4(c5ccc(Cl)cc5)CC4)nc(OCC(F)(F)F)n3)cc2)C(=O)O)cc1OC` [Compound 1176], under setting [2], the EC50 fell in the range of 0.01 to 10 nM.

With `O=C(NC/C(=N/C(=O)c1ccc(Nc2nc(NC3(c4ccc(Cl)cc4)CC3)nc(OCC(F)(F)F)n2)cc1)C(=O)O)C(=O)Nc1ccc(C(=O)c2ccccc2)cc1` [Compound 3152], the EC50 under setting [1] is 0.01 to 10 nM.

Turning to `CCC1CCC(NC(=O)C(=O)NCC[C@H](NC(=O)c2ccc(Nc3nc(NC4(c5ccc(Cl)cc5)CC4)nc(OCC(F)(F)F)n3)cc2)C(=O)OC)CC1` (stereo partly drawn) [Compound 1103], the EC50 under setting [2] lay within 0.01 to 10 nM.

In the case of `CC(C)(CNC(=O)C(=O)Nc1ncco1)CNC(=O)c1ccc(Nc2nc(NC3(c4ccc(Cl)cc4)CC3)nc(OCC(F)(F)F)n2)cc1` [Compound 3027], the EC50 under setting [1] lay within 0.01 to 10 nM.

In the case of `O=C(NCc1cc(F)cc(F)c1)C(=O)NC[C@H](NC(=O)c1ccc(Nc2nc(NC3(c4ccc(Cl)cc4)CC3)nc(OCC(F)(F)F)n2)cc1)C(=O)O` [Compound 1173], the midpoint of the response under setting [5], the EC50, lay at 0.74 nM and the EC50 under setting [2] was in the range of 0.01 to 10 nM.

With `O=C(NCc1ccc(F)cc1F)C(=O)NC[C@H](NC(=O)c1ccc(Nc2nc(NC3(c4ccc(Cl)cc4)CC3)nc(OCC(F)(F)F)n2)cc1)C(=O)O` [Compound 1168], under setting [2], the EC50 lay within 0.01 to 10 nM.

As for `CC(C)(Cc1ccc(F)cc1)NC(=O)C(=O)NCC[C@H](NC(=O)c1ccc(Nc2nc(NC3(c4ccc(Cl)cc4)CC3)nc(OCC(F)(F)F)n2)cc1)C(=O)O` [Compound 1340], the EC50 runs as follows: under setting [5], 0.1 nM; under setting [2], 0.01 to 10 nM.

On to `CCOCCOc1ccc(NC(=O)C(=O)NCC[C@H](NC(=O)c2ccc(Nc3nc(NC4(c5ccc(Cl)cc5)CC4)nc(OCC(F)(F)F)n3)cc2)C(=O)OC)cc1` [Compound 3309], for which, under setting [1], the EC50 was in the range of 0.01 to 10 nM.

Consider `COC(=O)[C@H](CCNC(=O)C(=O)NCC1(C(=O)OC)CC1)NC(=O)c1ccc(Nc2nc(NC3(c4ccc(Cl)cc4)CC3)nc(OCC(F)(F)F)n2)cc1` [Compound 1375], for which the EC50 under setting [2] was in the range of 0.01 to 10 nM.

On to `O=C(NCC[C@H](NC(=O)c1ccc(Nc2nc(NC3(c4ccc(Cl)cc4)CC3)nc(OCC(F)(F)F)n2)cc1)C(=O)O)C(=O)NC1CCC(O)CC1` (stereo partly drawn) [Compound 1118], for which, under setting [2], the EC50 lay in the range of 0.01 to 10 nM.

Regarding `CN(CCCN(C)C(=O)c1ccc(Nc2nc(NC3(c4ccc(Cl)cc4)CC3)nc(OCC(F)(F)F)n2)cc1)C(=O)C(=O)N1CCCCC1` [Compound 3432], the EC50 under setting [1] was 10 to 1000 nM.

Turning to `COC(=O)[C@H](CNC(=O)C(=O)Nc1ccc(Oc2cccnc2)cc1)NC(=O)c1ccc(Nc2nc(NC3(c4ccc(Cl)cc4)CC3)nc(OCC(F)(F)F)n2)cc1` [Compound 3207], the 50% effective concentration (EC50) under setting [1] is 0.01 to 10 nM.

Consider `CC(C)(CNC(=O)C(=O)Nc1nc2ccc(S(N)(=O)=O)cc2s1)CNC(=O)c1ccc(Nc2nc(NC3(c4ccc(Cl)cc4)CC3)nc(OCC(F)(F)F)n2)cc1F` [Compound 3678], for which, under setting [3], the EC50 fell in the range of 0.01 to 10 nM.

Turning to `COC(=O)[C@@H](CCNC(=O)C(=O)NCC1(Cn2ccnc2)CC1)NC(=O)c1ccc(Nc2nc(NC3(c4ccc(Cl)cc4)CC3)nc(OCC(F)(F)F)n2)cc1` [Compound 1385], under setting [2], the EC50 was in the range of 0.01 to 10 nM.

Regarding `Cc1ccc(NC(=O)C(=O)NCC(C)(C)CNC(=O)c2ccc(Nc3nc(NC4(c5ccc(Cl)cc5)CC4)nc(OCc4ccccc4)n3)cc2)cc1` [Compound 3843], the EC50 under setting [3] was in the range of 0.01 to 10 nM.

With `CC(C)(C)OC(=O)N1CCC(CNC(=O)C(=O)NCC[C@H](NC(=O)c2ccc(Nc3nc(NC4(c5ccc(Cl)cc5)CC4)nc(OCC(F)(F)F)n3)cc2)C(=O)O)CC1` [Compound 1213], the EC50 under setting [2] fell in the range of 0.01 to 10 nM.

For `Cc1cccc(CNC(=O)C(=O)NCC(C)(C)CNC(=O)c2ccc(Nc3nc(NC4(c5ccc(Cl)cc5)CC4)nc(OCC(F)(F)F)n3)cc2)c1` [Compound 3042], the EC50 under setting [1] was 0.01 to 10 nM.

In the case of `O=C(NCCC(NC(=O)c1ccc(Nc2nc(NC3(c4ccc(Cl)cc4)CC3)nc(OCC(F)(F)F)n2)cc1)C(=O)O)C(=O)Nc1ccc(OCCc2ncccn2)cc1` (stereo not drawn) [Compound 3536], the EC50 under setting [1] fell in the range of 0.01 to 10 nM.

Turning to `O=C(NCC[C@H](NC(=O)c1ccc(Nc2nc(NC3(c4ccc(Cl)cc4)CC3)nc(OCC(F)(F)F)n2)cc1)C(=O)O)C(=O)NCC1CC1c1cc(F)ccc1F` (stereo partly drawn) [Compound 1442], under setting [2], the EC50 lay within 0.01 to 10 nM.

For `COC(=O)[C@H](CNC(=O)C(=O)NC1CC(C)CC(C)(C)C1)NC(=O)c1ccc(Nc2nc(NC3(c4ccc(Cl)cc4)CC3)nc(OCC(F)(F)F)n2)cc1` (stereo partly drawn) [Compound 1060], the EC50 under setting [2] fell in the range of 0.01 to 10 nM.
